According to patent US9049864B2, “Pyridazinone herbicidal compounds” (Syngenta Limited, priority 2012, dated 2015):

Experiments:
Test in all cases: Post-emergence herbicidal glasshouse test, percentage damage to the plant
Format in all cases: in vivo
Details in all cases: post-emergence, 1000 g/ha, evaluated after 13 days
[1] = test system: Alopecurus myosuroides (ALOMY)
Procedure, shortened: (§1)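 Activity appears as a score from 1 (0-19% damage) to 5 (80-100%), assessed 13 days after a post-emergence spray of 8-day-old plants. Comparative runs used 250, 500 and 1000 g/ha; the standard rate was 1000 g/ha, formulated in acetone/water (50:50) with 0.5% Tween 20.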

[2] = test system: Amaranthus retoflexus (AMARE)
Procedure, shortened: as §1

[3] = test system: Echinochloa crus-galli (ECHCG)
Procedure, shortened: as §1

[4] = test system: Ipomoea hederacea (IPOHE)
Procedure, shortened: as §1

Setaria faberi (SETFA) = test system: Setaria faberi (SETFA)
Procedure, shortened: as §1

Solanum nigrum (SOLNI) = test system: Solanum nigrum (SOLNI)
Procedure, shortened: as §1

## CN1N=CC(=O)C(n2cc(Cl)c3cc(Cl)ccc32)C1=O (stereo not drawn) [Compound 1.016]
[1]
  POST Application ALOMY, percentage damage (five point scale): 1 (1=0-19%)
[2]
  POST Application AMARE, percentage damage (five point scale): 2 (2=20-39%)
[3]
  POST Application ECHCG, percentage damage (five point scale): 1 (1=0-19%)
[4]
  POST Application IPOHE, percentage damage (five point scale): 4 (4=60-79%)
Setaria faberi (SETFA)
  POST Application SETFA, percentage damage (five point scale): 1 (1=0-19%)
Solanum nigrum (SOLNI)
  POST Application SOLNI, percentage damage (five point scale): 5 (5=80-100%)

## CN1N=C(S(C)(=O)=O)C(=O)C(n2c(Cl)c(Cl)c3ccccc32)C1=O (stereo not drawn) [Compound 2.004]
[1]
  POST Application ALOMY, percentage damage (five point scale): 1 (1=0-19%)
[2]
  POST Application AMARE, percentage damage (five point scale): 2 (2=20-39%)
[3]
  POST Application ECHCG, percentage damage (five point scale): 1 (1=0-19%)
[4]
  POST Application IPOHE, percentage damage (five point scale): 2 (2=20-39%)
Setaria faberi (SETFA)
  POST Application SETFA, percentage damage (five point scale): 1 (1=0-19%)
Solanum nigrum (SOLNI)
  POST Application SOLNI, percentage damage (five point scale): 2 (2=20-39%)

## Cc1nn(C)c(=O)c(-n2c(Cl)c(Cl)c3ccccc32)c1OC(=O)c1ccc([N+](=O)[O-])cc1 [Compound 3.009]
[1]
  POST Application ALOMY, percentage damage (five point scale): 1 (1=0-19%)
[2]
  POST Application AMARE, percentage damage (five point scale): 5 (5=80-100%)
[3]
  POST Application ECHCG, percentage damage (five point scale): 1 (1=0-19%)
[4]
  POST Application IPOHE, percentage damage (five point scale): 5 (5=80-100%)
Setaria faberi (SETFA)
  POST Application SETFA, percentage damage (five point scale): 1 (1=0-19%)
Solanum nigrum (SOLNI)
  POST Application SOLNI, percentage damage (five point scale): 5 (5=80-100%)

## Cc1nn(C)c(=O)c(-n2c(Cl)c(Cl)c3ccccc32)c1OC(=O)N1CCOCC1 [Compound 3.002]
[1]
  POST Application ALOMY, percentage damage (five point scale): 1 (1=0-19%)
[2]
  POST Application AMARE, percentage damage (five point scale): 2 (2=20-39%)
[3]
  POST Application ECHCG, percentage damage (five point scale): 1 (1=0-19%)
[4]
  POST Application IPOHE, percentage damage (five point scale): 5 (5=80-100%)
Setaria faberi (SETFA)
  POST Application SETFA, percentage damage (five point scale): 1 (1=0-19%)
Solanum nigrum (SOLNI)
  POST Application SOLNI, percentage damage (five point scale): 5 (5=80-100%)

## Cc1nn(C)c(=O)c(-n2c(Cl)c(Cl)c3ccccc32)c1OC(=O)C(C)C [Compound 3.003]
[1]
  POST Application ALOMY, percentage damage (five point scale): 1 (1=0-19%)
[2]
  POST Application AMARE, percentage damage (five point scale): 5 (5=80-100%)
[3]
  POST Application ECHCG, percentage damage (five point scale): 4 (4=60-79%)
[4]
  POST Application IPOHE, percentage damage (five point scale): 5 (5=80-100%)
Setaria faberi (SETFA)
  POST Application SETFA, percentage damage (five point scale): 1 (1=0-19%)
Solanum nigrum (SOLNI)
  POST Application SOLNI, percentage damage (five point scale): 5 (5=80-100%)

## CSC1=NN(C)C(=O)C(n2c(Cl)c(Cl)c3ccccc32)C1=O (stereo not drawn) [Compound 2.003, 4-(2,3-dichloroindol-1-yl)-2-methyl-6-methylsulfanyl-pyridazine-3,5-dione]
[1]
  POST Application ALOMY, percentage damage (five point scale): 1 (1=0-19%)
[2]
  POST Application AMARE, percentage damage (five point scale): 2 (2=20-39%)
[3]
  POST Application ECHCG, percentage damage (five point scale): 1 (1=0-19%)
[4]
  POST Application IPOHE, percentage damage (five point scale): 4 (4=60-79%)
Setaria faberi (SETFA)
  POST Application SETFA, percentage damage (five point scale): 1 (1=0-19%)
Solanum nigrum (SOLNI)
  POST Application SOLNI, percentage damage (five point scale): 2 (2=20-39%)
